{
  "source": "paper PMC7217877",
  "about": "“N-AS-triggered SPMs are direct regulators of microglia in a model of Alzheimer’s disease” (Nature Communications, 2020)",
  "biological_target": "T1, COX2 S565A (Homo sapiens, UniProt P35354, S565A)",
  "T1 construct": "His (N); made in house",
  "T1 sequence (P35354 18-604 S565A)": "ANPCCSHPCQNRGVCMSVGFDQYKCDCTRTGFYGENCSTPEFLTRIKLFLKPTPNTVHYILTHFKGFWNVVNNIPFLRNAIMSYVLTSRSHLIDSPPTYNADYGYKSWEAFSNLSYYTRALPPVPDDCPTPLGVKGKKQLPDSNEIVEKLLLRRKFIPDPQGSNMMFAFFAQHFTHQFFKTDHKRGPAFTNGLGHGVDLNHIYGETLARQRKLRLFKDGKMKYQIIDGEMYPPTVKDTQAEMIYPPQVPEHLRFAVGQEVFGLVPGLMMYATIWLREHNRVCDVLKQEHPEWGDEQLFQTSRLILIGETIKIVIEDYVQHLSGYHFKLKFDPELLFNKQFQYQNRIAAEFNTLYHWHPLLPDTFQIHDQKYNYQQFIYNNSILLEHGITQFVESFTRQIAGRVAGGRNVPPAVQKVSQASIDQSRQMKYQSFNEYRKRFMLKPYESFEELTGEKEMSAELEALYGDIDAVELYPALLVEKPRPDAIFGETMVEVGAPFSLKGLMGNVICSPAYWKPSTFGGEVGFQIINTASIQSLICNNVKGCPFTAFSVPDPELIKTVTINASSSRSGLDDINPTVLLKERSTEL",
  "assay": "lipid mediator and SPM biosynthesis by recombinant COX2 with 5-LOX (LC-MS/MS)",
  "type": "biochemical",
  "settings": "COX2 S565A + 5-LOX; replicates",
  "from_the_text": "Single point mutations in SphK1 (R56A, R57A, R24A, R185A, D178A, and F192A) and COX2 (S565A, N181A, T564A, and S567A) were generated using the In-Fusion Cloning Kits (Clontech) and ORF cDNA expression plasmids of human SphK1 and COX2 gene (Sino Biological Inc, HG15679-NH and HG12036-NH), according to the manufacturer’s instructions. The forward and reverse primers described in Supplementary Table 4. The SphK1 WT, SphK1 mutants, COX2 WT, and COX2 mutant plasmids were transformed in the One shot TOP 10 competent cell (Invitrogen). The bacteria were grown in Luria-Bertani (LB, Invitrogen) plates supplemented with 50 μg ml^−1 kanamycin (Sigma-Aldrich) at 37 °C. The bacterial cell pellets were resuspended in lysis buffer containing 20 mM sodium phosphate (GE Healthcare), 500 mM NaCl (GE Healthcare), 20 mM imidazole (pH 7.4) (GE Healthcare), 0.2 mg ml^−1 lysozyme (Sigma-Aldrich), 20 μg ml^−1 DNase I (Roche), 1 mM MgCl2 (Sigma-Aldrich), and 1 mM PMSF (Sigma-Aldrich) before being lysed by sonication and clarified by centrifugation at 15,493×g for 10 min. Proteins were purified from the soluble fraction using His-Spin Trap columns (GE Healthcare) and the binding and acetylation assays were performed.\nLipid mediators metabololipidomics were performed according to previously described procedures with minor modifications[4],[30]. To confirm the biosynthesis of lipid mediators by recombinant COX2 treated with N-AS or aspirin, 10 U of human recombinant COX2 (Cayman, 60122) was incubated in the presence of 500 μM aspirin (Sigma-Aldrich, A5376) or N-AS (Sigma-Aldrich, 01912) at 37 °C for 30 min. The enzyme was filtered with a Microcon column (Millipore) to remove unreacted aspirin or N-AS and was then resuspended in 0.1 M Tris-HCl (pH 8.0). Next, 500 μM phenol (Sigma-Aldrich) and 1 μM hematin-porcine (Sigma-Aldrich) were added immediately before incubation with 100 μM AA, EPA or DHA (Cayman) at 37 °C for 2 h, respectively. The mixtures were incubated with 30 U of human 5-LOX (Cayman, 60402) containing 2 mM CaCl2 (Sigma-Aldrich), 1 mM ATP (Amresco) and 5 μM 13-HpODE (Cayman) as activators. Also, to validate the importance of residue S565 for N-AS-acetylation of COX2 and production of SPMs, 10 U of the COX2 S565A mutant was used in the above-described method. In addition, to confirm SPM generation in neurons and microglia, these cells were treated with Aβ and sonicated in neuronal and glial culture medium. […] To evaluate the relationship of N-AS and SPM production in microglia, microglia were isolated from WT, APP/PS1, and APP/PS1 treated with N-AS mice at 9 months of age. The microglia were sonicated and resuspended in microglial culture medium. The supernatants were incubated with 100 μM AA, EPA, and DHA (Cayman) at 37 °C for 2 h. A 50 μl aliquot of the mixture from each cell lysate was added to a 250 μl aliquot of 1 ng ml^−1 of 15S-LXA4-d5 (internal standard, Cayman) methanol solution. After vortexing for 10 min and centrifuging at 15,974×g for 5 min, the supernatant was subjected to the analysis of the lipid mediators using an Agilent 6470 Triple Quad LC-MS/MS system (Agilent) coupled to an Agilent 1290 HPLC system. Chromatographic separation was achieved using a Synergi Polar RP (4 μm, 2.0 mm i.d. × 150 mm, Phenomenex). Analytes were eluted with a mobile phase consisting of water: formic acid (100:0.1 v/v) (phase A) and methanol: formic acid (100:0.1 v/v) (phase B) in gradient elution mode for 23 min a flow rate of 0.2 ml min^−1. The elution gradient was as follows: from 0 to 0.1 min the content of phase A was 37% and the content of phase A was decreased to 10% and maintained for 5.5 min. The content of phase A was increased back to 37% at 6.0 min and maintained for 23 min. Quantification was carried out using MRM in negative ionization mode and collision energy of 10–15 eV. The mass transition from Q1 to Q3 is shown in Supplementary Table 2. In this study, the peak areas for all components were automatically integrated using MassHunter B 06.00. […]",
  "note": "Values joined by “and” are separate entries in the source; they are usually repeats but may differ in a detail not shown here. Equal entries are not always repeated.",
  "data": [
    {"smiles": "CC(=O)Oc1ccccc1C(=O)O", "note": "[Aspirin, acetylsalicylic acid, reference compound]", "values": [
      {"measurement": "15R-LxA4 quantification (Fig 2c)", "value": "9150.99 and 8986.22 and 7776.32 and 8811.42 and 9216.35 and 9050.41"},
      {"measurement": "RvD1 quantification (Fig 2c)", "value": "427.4 and 465.61 and 668.98 and 626.93 and 591.63 and 656.31 and 339.99"},
      {"measurement": "RvE1 quantification (Fig 2c)", "value": "3219.24 and 3312.36 and 4211.76 and 3281.98 and 3114.22 and 3326.6"}
    ]},
    {"smiles": "CCCCCCCCCCCCC/C=C/[C@@H](O)[C@H](CO)NC(C)=O", "note": "[N-AS, N-((2S,3R,E)-1,3-Dihydroxyoctadec-4-en-2-yl)acetamide]", "values": [
      {"measurement": "15R-LxA4 quantification (Fig 2c)", "value": "4593.92 and 7037.27 and 8226.06 and 8467.27 and 8518.27"},
      {"measurement": "RvD1 quantification (Fig 2c)", "value": "267.45 and 147.28 and 357.09 and 383.18 and 373.27 and 420.17 and 225.36"},
      {"measurement": "RvE1 quantification (Fig 2c)", "value": "2644.24 and 1751.77 and 1695.83 and 1984.56 and 2632.92 and 1703.12 and 1993.09"}
    ]}
  ]
}
